Experimental findings from patent publication US8263606B2 (Xenon Pharmaceuticals Inc., priority 2008, dated 2012) are described below.

Each structure is given as a SMILES string.

For one data set, the system named is sodium channel. Description: Guanidine influx assay (14C-guanidine radiotracer flux, in vitro). In kind it is cell-based, human or rat. As to conditions: guanidine influx assay using a known cell line that expresses a sodium channel. Put shortly:
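Cells (human/rat Nav, endogenous or recombinant), ~100,000/well, 20-24 h 37 °C/5% CO2. Wash LNHBSS (150 mM choline Cl, HEPES, glucose). Add cpd + aconitine/14C-guanidine mix, RT. Wash, dry, scintillation count. IC50: 4-PL fit; selectivity as IC50 ratio vs reference channel, e.g. Nav1.5.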

The next data set deals with CYP3A4 (Homo sapiens, UniProt P08684). Description: Cytochrome P450 (CYP450) Inhibition Assay, CYP3A4 (Vivid fluorescence, BOMCC substrate). As to conditions: human, P450 Baculosomes (recombinant CYP3A4), probe BOMCC (Vivid substrate).

Broadly, the IC50 is the point on the concentration scale where inhibition reaches its midpoint. By melting point is commonly meant the temperature of the solid-liquid transition. As usually defined, the inhibition is the share of the control response that was lost under treatment.

Chain of CYP3A4 (P08684 whole entry): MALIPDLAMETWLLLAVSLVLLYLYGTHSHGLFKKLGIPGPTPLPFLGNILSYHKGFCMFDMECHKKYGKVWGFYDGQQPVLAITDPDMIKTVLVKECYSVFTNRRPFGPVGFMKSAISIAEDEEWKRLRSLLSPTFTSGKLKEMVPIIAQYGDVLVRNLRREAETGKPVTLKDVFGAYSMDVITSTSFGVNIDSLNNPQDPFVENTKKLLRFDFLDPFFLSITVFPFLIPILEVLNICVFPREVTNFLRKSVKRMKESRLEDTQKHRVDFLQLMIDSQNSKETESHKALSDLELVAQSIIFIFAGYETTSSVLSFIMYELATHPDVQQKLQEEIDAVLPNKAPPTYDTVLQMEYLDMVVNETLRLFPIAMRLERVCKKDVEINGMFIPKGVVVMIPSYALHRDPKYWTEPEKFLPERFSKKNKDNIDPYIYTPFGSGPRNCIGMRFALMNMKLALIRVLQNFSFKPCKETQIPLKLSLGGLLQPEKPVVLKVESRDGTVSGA

The compound `O=C(CN1C(=O)C2(COc3cc4c(cc32)OCCO4)c2ccccc21)Nc1ccccc1F` (stereo not drawn) [Example 13.7, N-(2-fluorophenyl)-2-(2′-oxo-2,3-dihydrospiro[furo[2,3-g][1,4]benzodioxine-8,3′-indol]-1′(2′H)-yl)acetamide] showed a melting point of 117 to 119 °C. For the same compound, the IC50 with sodium channel lay within 1 to 100 nM. Moreover, the inhibition at 10 µM on CYP3A4 is under 50%.

Consider `O=C(NCCCN1C(=O)C2(COc3cc4c(cc32)CCO4)c2ccccc21)c1ccccc1OC(F)(F)F` (stereo not drawn) [Example 13.11, N-[3-(2′-oxo-5,6-dihydrospiro[benzo[1,2-b:5,4-b′]difuran-3,3′-indol]-1′(2′H)-yl)propyl]-2-(trifluoromethoxy)benzamide], for which the melting point was 65 to 70 °C. Besides, the IC50 in the data set with sodium channel is 100 to 1000 nM. Also, on CYP3A4, the inhibition at 10 µM was over 50%.

In the case of `C[C@H](O)CN1C(=O)C2(COc3cc4c(cc32)CCO4)c2ccccc21` (stereo partly drawn) [Example 14, 1′-[(2S)-2-hydroxypropyl]-5,6-dihydrospiro[benzo[1,2-b:5,4-b′]difuran-3,3′-indol]-2′(1′H)-one], the melting point lay in the range of 171 to 174 °C. Also, in the data set with sodium channel, the IC50 fell in the range of 100 to 1000 nM. Moreover, the inhibition at 10 µM on CYP3A4 was under 50%.

In turn, `C[C@@H](CN1C(=O)C2(COc3cc4c(cc32)CCO4)c2ccccc21)OCc1ccccc1` (stereo partly drawn) [Example 14.1, 1′-[(2S)-2-(benzyloxy)propyl]-5,6-dihydrospiro[benzo[1,2-b:5,4-b′]difuran-3,3′-indol]-2′(1′H)-one] gave a melting point of 45 to 47 °C. Moreover, the 50% inhibitory concentration (IC50) in the data set with sodium channel is 100 to 1000 nM. Besides, on CYP3A4, the inhibition at 10 µM was over 50%.

Take `C[C@@H](CN1C(=O)C2(COc3cc4c(cc32)CCO4)c2ccccc21)OCc1ccc(F)cc1` (stereo partly drawn) [Example 14.2, 1′-{(2S)-2-[(4-fluorobenzyl)oxy]propyl}-5,6-dihydrospiro[benzo[1,2-b:5,4-b′]difuran-3,3′-indol]-2′(1′H)-one]: the melting point lay in the range of 55 to 60 °C. Further, the IC50 with sodium channel is 100 to 1000 nM. Besides, the inhibition at 10 µM at CYP3A4 was over 50%.

Compound `C[C@@H](CN1C(=O)C2(COc3cc4c(cc32)CCO4)c2ccccc21)OCc1ccccn1` (stereo partly drawn) [Example 14.3, 1′-[(2S)-2-(pyridin-2-ylmethoxy)propyl]-5,6-dihydrospiro[benzo[1,2-b:5,4-b′]difuran-3,3′-indol]-2′(1′H)-one] registered a melting point of 46 to 54 °C. Further, the IC50 with sodium channel lay in the range of 1000 to 10000 nM. The inhibition at 10 µM on CYP3A4 is over 50%.

As for `CC(O)CCN1C(=O)C2(COc3cc4c(cc32)CCO4)c2ccccc21` (stereo not drawn) [Example 14.4, 1′-(3-hydroxybutyl)-5,6-dihydrospiro[benzo[1,2-b:5,4-b′]difuran-3,3′-indol]-2′(1′H)-one], the melting point lay within 64 to 66 °C. Further, the IC50 in the data set on sodium channel was 100 to 1000 nM. Besides, at CYP3A4, the inhibition at 10 µM is under 50%.

In turn, `O=C1N(CCC(O)C(F)(F)F)c2ccccc2C12COc1cc3c(cc12)CCO3` (stereo not drawn) [Example 14.5, 1′-(4,4,4-trifluoro-3-hydroxybutyl)-5,6-dihydrospiro[benzo[1,2-b:5,4-b′]difuran-3,3′-indol]-2′(1′H)-one] gave a melting point of 124 to 126 °C. Also, the IC50 with sodium channel was in the range of 100 to 1000 nM. For the same compound, the inhibition at 10 µM on CYP3A4 was over 50%.

As to `CC(C)CCNCCCN1C(=O)C2(COc3cc4c(cc32)CCO4)c2ccccc21.Cl` (stereo not drawn) [Example 15.1, 1′-{3-[(3-methylbutyl)amino]propyl}-5,6-dihydrospiro[benzo[1,2-b:5,4-b′]difuran-3,3′-indol]-2′(1′H)-one hydrochloride], the melting point lay within 98 to 101 °C. In addition, the half-inhibitory concentration (IC50) in the data set with sodium channel was in the range of 1000 to 10000 nM. For the same compound, the inhibition at 10 µM on CYP3A4 is over 50%.

As for `CCCCN(C)CCCN1C(=O)C2(COc3cc4c(cc32)CCO4)c2ccccc21.Cl` (stereo not drawn) [Example 15.2, 1′-{3-[butyl(methyl)amino]propyl}-5,6-dihydrospiro[benzo[1,2-b:5,4-b′]difuran-3,3′-indol]-2′(1′H)-one hydrochloride], the melting point lay in the range of 96 to 99 °C. The IC50 with sodium channel lay in the range of 1000 to 10000 nM. For the same compound, the inhibition at 10 µM on CYP3A4 was over 50%.
